According to ChEMBL document CHEMBL4699652, “Proline Hinged Amphipathic α-Helical Peptide Sensitizes Gram-Negative Bacteria to Various Gram-Positive Antibiotics” (J Med Chem, 2020):
The source made the active and inactive calls. The rule behind the calls is not given here.

Tests used:
Escherichia coli [1] = experiment: Antimicrobial activity against Escherichia coli ATCC 25922 assessed as reduction in cell viability at 10 to 10000 uM by propidium iodide staining based assay; assay type: functional, organism-based; conditions: dose microM 10-10000
Lipopolysaccharide (LPS) [2] = experiment: Binding affinity to O-antigen-deficient Escherichia coli LPS in POPE/POPG lipid layers containing O-antigen-deficient LPS by SPR assay
Cell membrane [3] = experiment: Induction of inner membrane permeability in Escherichia coli at 5 uM incubated for 1 hr by SYTOX Green-staining based flow cytometry analysis; assay type: subcellular
Escherichia coli [4] = experiment: Binding affinity to cell membrane using POPC/cholesterol (8/2) by SPR assay
Lipopolysaccharide (LPS) [5] = experiment: Binding affinity to LPS in Escherichia coli D21e7 assessed as localization in membrane regions at 1 uM using TAMRA-labeled compound by confocal fluorescence microscopy
[6] = Drug uptake in human HeLa cells at 1 uM incubated for 4 hrs using TAMRA-labeled compound; assay type: ADME, cell-based
Cell membrane [7] = experiment: Induction of outer membrane permeability in Escherichia coli assessed as periplasmic-beta-lactamase release at 5 uM using CENTA; assay type: subcellular
Escherichia coli [8] = experiment: Sensitization of rifampicin-induced antimicrobial activity against Escherichia coli ATCC 25922 infected in ICR CD1 mouse neutropenic thigh infection model assessed as reduction in bacterial CFU at 240 mg/kg, ip q1h x 8 hrs co-treated with 20 mg/kg, sc q4h x 8 hrs rifampicin; assay type: functional, organism-based
Staphylococcus aureus = experiment: Sensitization of rifampicin-induced antimicrobial activity against methicillin-resistant Staphylococcus aureus assessed as inhibition of bacterial growth at 8 ug/ml incubated for 18 hrs by CLSI based method; assay type: functional, organism-based; conditions: dose 8.0 µg/ml
Cell membrane [9] = experiment: Induction of cell membrane fluidity changes in Escherichia coli D21f2 by Laurdan-dye based fluorescence assay; assay type: subcellular
Cell membrane [10] = experiment: Induction of membrane permeability in Escherichia coli assessed as increase in fine surface roughness at 25 uM by atomic force microscopy; assay type: subcellular
Escherichia coli [11] = experiment: Sensitization of linezolid-induced antimicrobial activity against Escherichia coli ATCC 25922 infected in ICR CD1 mouse model of sepsis protection model assessed as increase in mouse survival at 30 mg/kg, ip q1h x 8 hrs for 7 days co-treated with 25 mg/kg, sc q4h x 8 hrs linezolid; assay type: functional, organism-based; conditions: time 7.0 day
Escherichia coli [12] = experiment: Sensitization of rifampicin-induced antimicrobial activity against Escherichia coli ATCC 25922 assessed as inhibition of bacterial growth at 4 to 8 ug/ml incubated for 18 hrs by CLSI based method; assay type: functional; conditions: dose microg/ml 4-8

Substance: Ac-KLLKLLKKPLKLLK-NH2
- Activity (Escherichia coli [1]): inactive
- Activity (Lipopolysaccharide (LPS) [2]): Active
- Activity (Cell membrane [3]): inactive
- Activity (Escherichia coli [4]): inactive
- Activity (Lipopolysaccharide (LPS) [5]): Active
- Drug uptake [6]: Not Active
- Activity (Cell membrane [7]): inactive
- Activity (Escherichia coli [8]): Active
- Activity (Staphylococcus aureus): Active
- Activity (Cell membrane [9]): inactive
- Activity (Cell membrane [10]): Active
- Activity (Escherichia coli [11]): Active
- fold change (FC) (Escherichia coli [12]): <=212
